Test results reported in patent US20170112866A1, “ANTI-TUMOR AGENT CONTAINING TAXANE COMPOUND, AND ANTI-TUMOR EFFECT ENHANCER” (Taiho Pharmaceutical Company Limited, priority 2014, published 2017).

Tests used:
[1] = system: human gastric cancer cell line (SC-2); test: Anti-tumor effect on SC-2 transplanted to nude mice (RTV, IR); format: in vivo; settings: Day 29, tail vein, Day 1 and Day 8
Description: The FTD•TPI combination drug (a mixture of FTD and TPI at a molar ratio of 1:0.5) was prepared for administration at a dose of 150 mg/kg/day in terms of FTD. Paclitaxel (TXL, Wako Pure Chemical Industries, Ltd.) was prepared for administration at doses of 5 and 20 mg/kg/day. The FTD•TPI combination drug was orally administered on Days 1 to 14 consecutively, and paclitaxel was administered through the tail vein on Day 1 and Day 8. In the combination administration groups, the doses and administration schedules of the FTD•TPI combination drug and paclitaxel were the same as those of the corresponding monotherapy groups.
As an index of the anti-tumor effect, the TVs on Days 3, 7, 12, 15, 19, 22, 26, and 29 were calculated in each group. In accordance with the following equation, the relative tumor volume (RTV) to that on Day 0 was calculated and compared with the RTV of the untreated group (control).
TV (mm^3)=(long diameter×short diameter^2)/2
RTV=(TV on Day 29)/(TV on Day 0)
The RTVs were plotted on the indicated measurement days, and RTV changes over days in the control group, the FTD•TPI combination drug administration group, the paclitaxel administration group, and the combination administration group of the FTD•TPI combination drug and paclitaxel were compared.
The tumor growth inhibition rate (IR) on Day 29 on the basis of RTV values was calculated in accordance with the following equation.
IR (%)=[1−(mean RTV value of treated group)/(mean RTV value of control group)]×100

[2] = mouse, in vivo
Description: (§1) A human gastric cancer cell line (SC-2) was transplanted to the right chest of 5 to 6-week-old BALB/cA Jcl-nu mice. After the tumor transplantation, the long diameter (mm) and the short diameter (mm) of the tumor were measured, and the tumor volume (TV) was calculated. […] Paclitaxel was administered at doses of 10, 20, and 30 mg/kg/day on Days 1 and 8.

[3] = Paclitaxel dose finding in SC-2-bearing mice (Reference Example 2); settings: doses 10, 20, 30 mg/kg/day on Days 1 and 8 tested
Description: as §1

## CC(=O)O[C@H]1C(=O)[C@@]2(C)[C@H]([C@H](OC(=O)c3ccccc3)[C@]3(O)C[C@H](OC(=O)[C@H](O)[C@@H](NC(=O)c4ccccc4)c4ccccc4)C(C)=C1C3(C)C)[C@]1(OC(C)=O)CO[C@@H]1C[C@@H]2O [Paclitaxel (TXL), (−)-(1S,2S,3R,4S,5R,7S,8S,10R,13S)-4,10-diacetoxy-2-benzoyloxy-5,20-epoxy-1,7-dihydroxy-9-oxotax-11-en-13-yl(2R,3S)-3-benzoylamino-2-hydroxy-3-phenylpropionate]
[1]; paclitaxel 5 mg/kg/day
  IR (tumor growth inhibition rate): 27.1%
  RTV (mean ± SD): 44.97 ± 1.78
[1]; paclitaxel 20 mg/kg/day
  IR (tumor growth inhibition rate): 83.6%
  RTV (mean ± SD): 10.13 ± 2.94
[2]
  mice deceased: four of the six mice deceased
[3]
  recommended dose for mice: 20 mg/kg/day
